Measured values taken from patent US7812039B2, “Drugs for chronic pains” (Nicox S.A., priority 2001, dated 2010).

Assays:
Washed human platelets = test: NO generation from NO-donors with platelets, chemiluminescence; format: cell-based; settings: incubation of 100 μM, 5 minutes
Procedure: (§1) The test relates to the nitric oxide generation from the NO-donors, for example nitroglycerin, niocorandil, nitroprussiate, etc., in the presence of endothelial cells (method a) or platelets (method b). • a) Endothelial Cells • Human cells of the umbilical vein, cultured on plates, having a 10^3 density cells/well were incubated for 5 minutes with scalar concentrations of NO-donor (1-100 μg/ml). The incubation medium (physiologic solution, for example Tyrode) was then analyzed to determine the capability to generate NO of the compound under test, by means of: • 1) nitric oxide detection by chemiluminescence; • 2) cGMP determination (cyclic GMP n° 2715 of the above mentioned Merck). • For the analysis by chemiluminescence, an amount equal to 100 μl was injected in the reaction chamber of a chemiluminescence analyzer containing glacial acetic acid and potassium iodide. The nitrites/nitrates present in the medium, under these conditions are converted into NO which is then detected after reaction with ozone, which produces light. In the equipments which measure the chemiluminescence, the luminescence produced is directly proportional to the generated NO levels and can be measured by a suitable photomultiplying unit of a chemiluminescence analyzer. The photomultiplier converts the incident light in electric voltage, which is quantitatively recorded. […]

[1] = test system: Human cells of the umbilical vein; test: NO generation from NO-donors with endothelial cells, chemiluminescence; format: cell-based; settings: incubation of 100 μM, 5 minutes
Procedure: as §1

## O=C(NCCO[N+](=O)[O-])c1cccnc1 [nicorandil]
Washed human platelets
  amount of NO generated: 35 µM
[1]
  amount of NO generated: about 10 μM
